From US7964531B2, “3-phenoxy-4-pyridazinol derivatives and herbicidal composition containing the same” (Mitsui Chemicals Agro, Inc., priority 2001, dated 2011)
One block for each compound: values may come before it.

Columns and labels:
[1] = system: transplanted paddy-field rice; experiment: Test Example 4: crop injury against transplanted paddy-field rice; type: in vivo; settings: after 25 days
Procedure: (§1) Paddy filed soil was filled in 1/5000 are Wagner pot, seeds of barnyardgrass (Echinochloa oryzicola Vasing.), Scirpus joncoides and annual broad-leaved weeds (Lindernia spp. and Rotala indica) which are awaken from dormancy were mixed at the surface layer of 1 cm. Also, tubers of Cyperus serotinus, Sagittaria pygmaea and Eleocharis kuroguwai which are awaken from dormancy were planted, and further seedlings of paddy-field rice at 2.2-leaf stage were transplanted and they were grown under the flooded condition in a greenhouse. After 3 days from the transplanting, a predetermined chemical dosage of the wettable powder prepared in accordance with Preparation example 5 was diluted with water, and applied to the pot. After 25 days, herbicidal effects and crop injury against transplanted paddy-field rice were judged according to the following judgment standard, and the results were shown in Table 5. Incidentally, “-” in the table means a composition containing no effective ingredient.
(§2) Judgment Standard • 0: Growth-inhibition rate; 0 to 15% • 1: Growth inhibition rate; 16 to 35% • 2: Growth inhibition rate; 36 to 55% • 3: Growth inhibition rate; 56 to 75% • 4: Growth inhibition rate; […] • 5: Growth inhibition rate; 96 to 100%.

[2] = system: annual broad-leaved weeds (Lindernia spp. and Rotala indica); experiment: Test Example 4: herbicidal effects of mixed wettable powder, paddy-field pot test; type: in vivo; settings: after 25 days
Procedure: as §1, §2

[3] = system: barnyardgrass (Echinochloa oryzicola Vasing.); experiment: as above; type: in vivo; settings: after 25 days
Procedure: as §1, §2

[4] = system: Cyperus serotinus; experiment: as above; type: in vivo; settings: after 25 days
Procedure: as §1, §2

[5] = system: Sagittaria pygmaea; experiment: as above; type: in vivo; settings: after 25 days
Procedure: as §1, §2

[6] = system: Eleocharis kuroguwai; experiment: as above; type: in vivo; settings: after 25 days
Procedure: as §1, §2

[7] = system: Scirpus joncoides; experiment: as above; type: in vivo; settings: after 25 days
Procedure: as §1, §2

[8] = system: annual broad-leaved weeds (Lindernia spp., Rotala indica); experiment: Test Example 1: herbicidal effects, paddy-field pot test; type: in vivo; settings: wettable powder applied 3 days after transplanting, judged after 25 days
Summary of the method: (§3)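 First, paddy soil was potted and seeded at the surface layer with non-dormant weed seeds; germinated Cyperus serotinus tubers were planted and 2.2-leaf rice transplanted. Three days later, diluted wettable powder was applied under flooding. Inhibition was rated 0–5 after 25 days.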

[9] = system: barnyardgrass (Echinochloa oryzicola Vasing.); experiment: as above; type: in vivo; settings: wettable powder applied 3 days after transplanting, judged after 25 days
Summary of the method: as §3

[10] = system: Cyperus serotinus; experiment: as above; type: in vivo; settings: wettable powder applied 3 days after transplanting, judged after 25 days
Summary of the method: as §3

[11] = system: Scirpus joncoides; experiment: as above; type: in vivo; settings: wettable powder applied 3 days after transplanting, judged after 25 days
Summary of the method: as §3

[12] = system: transplanted paddy-field rice; experiment: Test Example 1: crop injury against transplanted paddy-field rice; type: in vivo; settings: wettable powder applied 3 days after transplanting, judged after 25 days
Summary of the method: as §3

[13] = derivative 2.5 g/a, no second compound
[14] = derivative 5 g/a, no second compound
[15] = derivative 10 g/a, no second compound

Structure (SMILES): Cc1ccc(S(=O)(=O)Oc2c(C(=O)c3ccc(Cl)cc3Cl)c(C)nn2C)cc1 [Compound A, 4-(2,4-dichlorobenzoyl)-1,3-dimethyl-5-pyrazolyl-p-toluenesulfonate, reference compound]
Crop injury against transplanted rice ([1]; second compound alone 5 g/a): 0 (Growth-inhibition rate; 0 to 15%) | Crop injury against transplanted rice ([1]; second compound alone 30 g/a): 0 (Growth-inhibition rate; 0 to 15%) | Herbicidal effects Broad leaf ([2]; second compound alone 5 g/a): 4 (Growth inhibition rate; 7.6 to 95%) | Herbicidal effects Broad leaf ([2]; second compound alone 30 g/a): 5 (Growth inhibition rate; 96 to 100%) | Herbicidal effects Barnyard grass ([3]; second compound alone 5 g/a): 3 (Growth inhibition rate; 56 to 75%) | Herbicidal effects Barnyard grass ([3]; second compound alone 30 g/a): 5 (Growth inhibition rate; 96 to 100%) | Herbicidal effects Cyperus serotinus ([4]; second compound alone 5 g/a): 2 (Growth inhibition rate; 36 to 55%) | Herbicidal effects Cyperus serotinus ([4]; second compound alone 30 g/a): 4 (Growth inhibition rate; 7.6 to 95%) | Herbicidal effects Sagittaria pygmaea ([5]; second compound alone 5 g/a): 4 (Growth inhibition rate; 7.6 to 95%) | Herbicidal effects Sagittaria pygmaea ([5]; second compound alone 30 g/a): 5 (Growth inhibition rate; 96 to 100%) | Herbicidal effects Eleocharis kuroguwai ([6]; second compound alone 5 g/a): 0 (Growth-inhibition rate; 0 to 15%) | Herbicidal effects Eleocharis kuroguwai ([6]; second compound alone 30 g/a): 2 (Growth inhibition rate; 36 to 55%) | Herbicidal effects Scirpus joncoides ([7]; second compound alone 5 g/a): 3 (Growth inhibition rate; 56 to 75%) | Herbicidal effects Scirpus joncoides ([7]; second compound alone 30 g/a): 4 (Growth inhibition rate; 7.6 to 95%)

Structure (SMILES): Oc1cc(Cl)nnc1Oc1cccc2ccoc12 [Example 191]
Herbicidal effects Broad leaf ([8]; chemical dosage 10 g/a): 5 (Growth inhibition rate; 91 to 100%) | Herbicidal effects Broad leaf ([8]; chemical dosage 20 g/a): 5 (Growth inhibition rate; 91 to 100%) | Herbicidal effects Barnyard grass ([9]; chemical dosage 10 g/a): 4 (Growth inhibition rate; 71 to 90%) | Herbicidal effects Barnyard grass ([9]; chemical dosage 20 g/a): 5 (Growth inhibition rate; 91 to 100%) | Herbicidal effects Cyperus serotinus ([10]; chemical dosage 10 g/a): 5 (Growth inhibition rate; 91 to 100%) | Herbicidal effects Cyperus serotinus ([10]; chemical dosage 20 g/a): 5 (Growth inhibition rate; 91 to 100%) | Herbicidal effects Scirpus joncoides ([11]; chemical dosage 10 g/a): 5 (Growth inhibition rate; 91 to 100%) | Herbicidal effects Scirpus joncoides ([11]; chemical dosage 20 g/a): 5 (Growth inhibition rate; 91 to 100%) | Crop injury against transplanted rice ([12]; chemical dosage 10 g/a): 2 (Growth inhibition rate; 31 to 50%) | Crop injury against transplanted rice ([12]; chemical dosage 20 g/a): 5 (Growth inhibition rate; 91 to 100%) | Crop injury against transplanted rice [1, 13]: 0 (Growth-inhibition rate; 0 to 15%) | Herbicidal effects Broad leaf [2, 13]: 3 (Growth inhibition rate; 56 to 75%) | Herbicidal effects Barnyard grass [3, 13]: 1 (Growth inhibition rate; 16 to 35%) | Herbicidal effects Cyperus serotinus [4, 13]: 5 (Growth inhibition rate; 96 to 100%) | Herbicidal effects Sagittaria pygmaea [5, 13]: 2 (Growth inhibition rate; 36 to 55%) | Herbicidal effects Eleocharis kuroguwai [6, 13]: 1 (Growth inhibition rate; 16 to 35%) | Herbicidal effects Scirpus joncoides [7, 13]: 3 (Growth inhibition rate; 56 to 75%)

melting point: 203 to 207 °C
Structure (SMILES): N#CC1CC1c1ccccc1Oc1nnc(Cl)cc1O (stereo not drawn) [Compound No. 226, 2-{2-[(6-Chloro-4-hydroxy-3-pyridazinyl)oxy]phenyl}-cyclopropanecarbonitrile]
Crop injury against transplanted rice [1, 14]: 0 (Growth-inhibition rate; 0 to 15%) | Crop injury against transplanted rice [1, 15]: 0 (Growth-inhibition rate; 0 to 15%) | Herbicidal effects Broad leaf [2, 14]: 5 (Growth inhibition rate; 96 to 100%) | Herbicidal effects Broad leaf [2, 15]: 5 (Growth inhibition rate; 96 to 100%) | Herbicidal effects Barnyard grass [3, 14]: 3 (Growth inhibition rate; 56 to 75%) | Herbicidal effects Barnyard grass [3, 15]: 3 (Growth inhibition rate; 56 to 75%) | Herbicidal effects Cyperus serotinus [4, 14]: 5 (Growth inhibition rate; 96 to 100%) | Herbicidal effects Cyperus serotinus [4, 15]: 5 (Growth inhibition rate; 96 to 100%) | Herbicidal effects Sagittaria pygmaea [5, 14]: 5 (Growth inhibition rate; 96 to 100%) | Herbicidal effects Sagittaria pygmaea [5, 15]: 5 (Growth inhibition rate; 96 to 100%) | Herbicidal effects Eleocharis kuroguwai [6, 14]: 1 (Growth inhibition rate; 16 to 35%) | Herbicidal effects Eleocharis kuroguwai [6, 15]: 2 (Growth inhibition rate; 36 to 55%) | Herbicidal effects Scirpus joncoides [7, 14]: 4 (Growth inhibition rate; 7.6 to 95%) | Herbicidal effects Scirpus joncoides [7, 15]: 5 (Growth inhibition rate; 96 to 100%)

Structure (SMILES): Cc1ccc(C(=O)COc2c(C(=O)c3c(Cl)ccc(C)c3Cl)c(C)nn2C)cc1 [Compound C, 2-[4-(2,4-dichloro-m-toluoyl)-1,3-dimethylpyrazol-5-yloxy]-4′-methyl-acetophenone, reference compound]
Crop injury against transplanted rice ([1]; second compound alone 5 g/a): 0 (Growth-inhibition rate; 0 to 15%) | Crop injury against transplanted rice ([1]; second compound alone 30 g/a): 0 (Growth-inhibition rate; 0 to 15%) | Herbicidal effects Broad leaf ([2]; second compound alone 5 g/a): 5 (Growth inhibition rate; 96 to 100%) | Herbicidal effects Broad leaf ([2]; second compound alone 30 g/a): 5 (Growth inhibition rate; 96 to 100%) | Herbicidal effects Barnyard grass ([3]; second compound alone 5 g/a): 3 (Growth inhibition rate; 56 to 75%) | Herbicidal effects Barnyard grass ([3]; second compound alone 30 g/a): 5 (Growth inhibition rate; 96 to 100%) | Herbicidal effects Cyperus serotinus ([4]; second compound alone 5 g/a): 1 (Growth inhibition rate; 16 to 35%) | Herbicidal effects Cyperus serotinus ([4]; second compound alone 30 g/a): 4 (Growth inhibition rate; 7.6 to 95%) | Herbicidal effects Sagittaria pygmaea ([5]; second compound alone 5 g/a): 4 (Growth inhibition rate; 7.6 to 95%) | Herbicidal effects Sagittaria pygmaea ([5]; second compound alone 30 g/a): 5 (Growth inhibition rate; 96 to 100%) | Herbicidal effects Eleocharis kuroguwai ([6]; second compound alone 5 g/a): 0 (Growth-inhibition rate; 0 to 15%) | Herbicidal effects Eleocharis kuroguwai ([6]; second compound alone 30 g/a): 2 (Growth inhibition rate; 36 to 55%) | Herbicidal effects Scirpus joncoides ([7]; second compound alone 5 g/a): 2 (Growth inhibition rate; 36 to 55%) | Herbicidal effects Scirpus joncoides ([7]; second compound alone 30 g/a): 4 (Growth inhibition rate; 7.6 to 95%)

Structure (SMILES): Cc1nn(C)c(OCC(=O)c2ccccc2)c1C(=O)c1ccc(Cl)cc1Cl [Compound B, 2-[4-(2,4-dichlorobenzoyl)-1,3-dimethylpyrazol-5-yloxy]acetophenone, reference compound]
Crop injury against transplanted rice ([1]; second compound alone 5 g/a): 0 (Growth-inhibition rate; 0 to 15%) | Crop injury against transplanted rice ([1]; second compound alone 30 g/a): 0 (Growth-inhibition rate; 0 to 15%) | Herbicidal effects Broad leaf ([2]; second compound alone 5 g/a): 4 (Growth inhibition rate; 7.6 to 95%) | Herbicidal effects Broad leaf ([2]; second compound alone 30 g/a): 5 (Growth inhibition rate; 96 to 100%) | Herbicidal effects Barnyard grass ([3]; second compound alone 5 g/a): 3 (Growth inhibition rate; 56 to 75%) | Herbicidal effects Barnyard grass ([3]; second compound alone 30 g/a): 5 (Growth inhibition rate; 96 to 100%) | Herbicidal effects Cyperus serotinus ([4]; second compound alone 5 g/a): 2 (Growth inhibition rate; 36 to 55%) | Herbicidal effects Cyperus serotinus ([4]; second compound alone 30 g/a): 4 (Growth inhibition rate; 7.6 to 95%) | Herbicidal effects Sagittaria pygmaea ([5]; second compound alone 5 g/a): 4 (Growth inhibition rate; 7.6 to 95%) | Herbicidal effects Sagittaria pygmaea ([5]; second compound alone 30 g/a): 5 (Growth inhibition rate; 96 to 100%) | Herbicidal effects Eleocharis kuroguwai ([6]; second compound alone 5 g/a): 0 (Growth-inhibition rate; 0 to 15%) | Herbicidal effects Eleocharis kuroguwai ([6]; second compound alone 30 g/a): 2 (Growth inhibition rate; 36 to 55%) | Herbicidal effects Scirpus joncoides ([7]; second compound alone 5 g/a): 3 (Growth inhibition rate; 56 to 75%) | Herbicidal effects Scirpus joncoides ([7]; second compound alone 30 g/a): 4 (Growth inhibition rate; 7.6 to 95%)

Structure (SMILES): Cc1cc(C)c(Br)c(Oc2nnc(Cl)cc2O)c1C [Example 319]
Herbicidal effects Broad leaf ([8]; chemical dosage 10 g/a): 5 (Growth inhibition rate; 91 to 100%) | Herbicidal effects Broad leaf ([8]; chemical dosage 20 g/a): 5 (Growth inhibition rate; 91 to 100%) | Herbicidal effects Barnyard grass ([9]; chemical dosage 10 g/a): 2 (Growth inhibition rate; 31 to 50%) | Herbicidal effects Barnyard grass ([9]; chemical dosage 20 g/a): 3 (Growth inhibition rate; 51 to 70%) | Herbicidal effects Cyperus serotinus ([10]; chemical dosage 10 g/a): 5 (Growth inhibition rate; 91 to 100%) | Herbicidal effects Cyperus serotinus ([10]; chemical dosage 20 g/a): 5 (Growth inhibition rate; 91 to 100%) | Herbicidal effects Scirpus joncoides ([11]; chemical dosage 10 g/a): 5 (Growth inhibition rate; 91 to 100%) | Herbicidal effects Scirpus joncoides ([11]; chemical dosage 20 g/a): 5 (Growth inhibition rate; 91 to 100%) | Crop injury against transplanted rice ([12]; chemical dosage 10 g/a): 0 (Growth inhibition rate; 0 to 10%) | Crop injury against transplanted rice ([12]; chemical dosage 20 g/a): 0 (Growth inhibition rate; 0 to 10%)
